In ChEMBL document CHEMBL1201862, “PubChem BioAssay data set” (2004):
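Results reflect a 48-hour exposure of cells in 96-well plates to compound at five concentrations. GI50 marks 50% less growth.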 Activity calls are given as the source filed them. Cut-off read from the data, not from the text of the source: active = GI50 up to about 1.1 µM and inactive = higher. Where a SMILES comes first, the peptide text is derived from it. The star is where a group is joined. Boc = CC(C)(C)OC(=O)*; nBu = CCCC*

Experiments:
Test in all cases: NCI tumour cell line growth inhibition, 48 h
BT-549 = test system: BT-549
Hs-578T = test system: Hs-578T
MDA-N = test system: MDA-N
DLD-1 = test system: DLD-1
KM-20L2 = test system: KM-20L2
DU-145 = test system: DU-145
T47D = test system: T47D

Compound | GI50 (BT-549) | GI50 (Hs-578T) | GI50 (MDA-N) | GI50 (DLD-1) | GI50 (KM-20L2) | GI50 (DU-145) | GI50 (T47D)
C=C(CC[C@@H](C)[C@H]1CC[C@@]2(C)C3=C(CC[C@]12C)[C@@]1(C)CC[C@H](O)[C@@H](C)C1CC3)C(C)C (stereo not given in full) | 1.48 µM (inactive) | 1.6 µM (inactive) | 1.17 µM (inactive) | – | – | – | –
COc1ccc(C(=O)OCC2OC(n3cnc4c(=S)nc[nH]c43)C(OC(=O)c3ccc(OC)cc3)C2OC(=O)c2ccc(OC)cc2)cc1 (stereo not given) | – | – | – | 11.6 µM (inactive) | 8.47 µM (inactive) | – | –
O=C(O)CSc1ccc2nc3ccccc3c(O)c2c1 | – | – | – | > 100 µM (inactive) | > 100 µM (inactive) | – | –
COC1C(O)C(C)OC(O[C@@H]2C[C@H]3CC[C@@H]4[C@H](CC[C@]5(C)[C@@H](C6=CC(=O)OC6)CC[C@]45O)[C@@]3(C)[C@H](O)C2)C1O (stereo not given in full) | < 0.0246 µM (active) | 0.182 µM (active) | 0.0166 µM (active) | – | – | < 0.0302 µM (active) | 0.111 µM (active)
CCN1CCCCCCCCCC(=N/O)/C(=N\O)C1 | > 100 µM (inactive) | – | > 100 µM (inactive) | – | – | > 100 µM (inactive) | > 100 µM (inactive)
COC(=O)[C@@H](Nc1ccccc1)[C@@]1(C(=O)OC)SC12c1ccccc1-c1ccccc12 | 75.5 µM (inactive) | > 100 µM (inactive) | 61.1 µM (inactive) | – | – | > 100 µM (inactive) | 25.5 µM (inactive)
CC1(C)Oc2ccc3c(=O)cc(-c4ccc(F)cc4)oc3c2C1C(=O)O (stereo not given) | – | > 100 µM (inactive) | > 100 µM (inactive) | – | – | > 100 µM (inactive) | > 100 µM (inactive)
CC(C)(C)c1ccc(OCCOc2ccc(C(C)(C)C)cc2NC=O)c(NC=O)c1 | 15.6 µM (inactive) | 12.5 µM (inactive) | 9.12 µM (inactive) | – | – | 17.9 µM (inactive) | 6.01 µM (inactive)
NC(=O)Cc1nc2c(N)ncnc2n1C1OC(CO)C(O)C1O (stereo not given) | > 100 µM (inactive) | > 100 µM (inactive) | > 100 µM (inactive) | – | – | > 100 µM (inactive) | > 100 µM (inactive)
c1ccc2c(CSCc3cccc4ccccc34)cccc2c1 | > 100 µM (inactive) | > 100 µM (inactive) | > 100 µM (inactive) | – | – | > 100 µM (inactive) | 53.6 µM (inactive)
ClC1CCC2OOC1O2 (stereo not given) | – | – | – | – | > 100 µM (inactive) | – | –
CCN(CC)Cc1sc2nc3ccccc3n2c1-c1ccc(OC)cc1 | 32.7 µM (inactive) | 34.9 µM (inactive) | 2.61 µM (inactive) | – | – | 35.4 µM (inactive) | –
C[Si](C)(OCCS(=O)(=O)O)C1S(=O)(=O)OCCOS1(=O)=O | 27.4 µM (inactive) | – | 92 µM (inactive) | – | – | 80.9 µM (inactive) | 36.6 µM (inactive)
CCCCCCCC(=O)OC[C@@H](C[As](=O)(O)O)OC(=O)CCCCCCC | – | – | – | 13.6 µM (inactive) | 16.9 µM (inactive) | – | –
COCCOCCOCCOc1ccc(C(C#N)N(CCc2ccccc2)C(=O)c2cc(C(=O)N(CCc3ccccc3)C(C#N)c3ccc(OCCOCCOCCOC)cc3)cc(C(=O)N(CCc3ccccc3)C(C#N)c3ccc(OCCOCCOCCOC)cc3)c2)cc1 (stereo not given) | > 100 µM (inactive) | 54.3 µM (inactive) | > 100 µM (inactive) | – | – | > 100 µM (inactive) | > 100 µM (inactive)
CC(C)(C)OC(=O)N1CCCC1C(=O)NC(c1ccccc1)c1ccccc1 (stereo not given) | > 100 µM (inactive) | > 100 µM (inactive) | > 100 µM (inactive) | – | – | > 100 µM (inactive) | > 100 µM (inactive)
CC(C)C1=CC23CCC4C(C)(C(=O)O)CCCC4(C)C2CC1C1C(=O)N(CCCCCCN2C(=O)C4C5CC6C7(C)CCCC(C)(C(=O)O)C7CCC6(C=C5C(C)C)C4C2=O)C(=O)C13 (stereo not given) | – | 12.3 µM (inactive) | 11.1 µM (inactive) | – | – | > 10 µM (inactive) | 21.1 µM (inactive)
COc1ccc(CCn2cnc3ccccc32)cc1 | > 100 µM (inactive) | > 100 µM (inactive) | > 100 µM (inactive) | – | – | > 100 µM (inactive) | –
CC(=O)Oc1ccccc1/C=C/C(=O)/C=C/c1ccccc1OC(C)=O | 1.73 µM (inactive) | 3.69 µM (inactive) | 1.91 µM (inactive) | – | – | 3.08 µM (inactive) | 3.49 µM (inactive)
CC(=O)/C(=C/N1CCNC1=S)C(=O)Nc1ccccc1C | > 100 µM (inactive) | > 100 µM (inactive) | > 100 µM (inactive) | – | – | > 100 µM (inactive) | > 100 µM (inactive)
CC1CCCN1CCCOC(=O)c1ccc(OC2C=CCCC2)cc1 (stereo not given) | 40.6 µM (inactive) | 32.4 µM (inactive) | 39.5 µM (inactive) | – | – | > 100 µM (inactive) | 13.5 µM (inactive)
C/C(=C1\C(=O)C(c2ccccc2)N(c2ccccc2)C1=O)c1ccc(Cl)cc1 (stereo not given) | 19.8 µM (inactive) | 18.7 µM (inactive) | 19.7 µM (inactive) | – | – | 18.7 µM (inactive) | 19.4 µM (inactive)
COC(=O)/C=C/c1cnc2c(c1)oc(=O)n2CCc1ccccn1 | 42.8 µM (inactive) | > 100 µM (inactive) | 23.8 µM (inactive) | – | – | – | 50.6 µM (inactive)
O=C(/C=C/c1cccs1)c1ccc(C(=O)/C=C/c2cccs2)cc1 | > 100 µM (inactive) | > 100 µM (inactive) | – | – | – | > 100 µM (inactive) | > 100 µM (inactive)

Compound | GI50 (BT-549) | GI50 (Hs-578T) | GI50 (MDA-N) | GI50 (DLD-1) | GI50 (KM-20L2) | GI50 (DU-145) | GI50 (T47D)
C(=N\c1ccc(-c2cc(-c3ccccc3)nc3ccc4ccccc4c23)cc1)/c1ccccc1 | – | 5.86 µM (inactive) | 24.4 µM (inactive) | – | – | 20.7 µM (inactive) | –
CN(NC(=O)c1ccc(Cl)cc1)C1=NCCCCN1 | > 100 µM (inactive) | > 100 µM (inactive) | > 100 µM (inactive) | – | – | – | > 100 µM (inactive)
CN(Cc1cnc2nc(N)nc(N)c2n1)c1ccc(C(=O)NC(CCC(=O)O)C(=O)O)cc1 (stereo not given) | 4.07 µM (inactive) | – | – | – | – | 0.0154 µM (active) | –
CO[C@@]12C[C@@H](C)C3=CCC(C)=C3CC1=C(C)C(=O)O2 | > 100 µM (inactive) | > 100 µM (inactive) | – | – | – | – | –
CCC1(O)C[C@H]2CN(CCCc3c([nH]c4ccccc34)[C@@](C(=O)OC)(c3cc4c(cc3OC)N(C)C3[C@](O)(C(=O)OC)[C@H](OC(C)=O)[C@]5(CC)C=CCN6CC[C@]43[C@H]65)C2)C1 (stereo not given in full) | – | – | – | 2.22 µM (inactive) | 0.298 µM (active) | – | –
CC[C@@]1(N(C)C)C(=O)OCc2c1cc1n(c2=O)Cc2cc3ccccc3nc2-1 | 20.3 µM (inactive) | – | – | – | – | 21.1 µM (inactive) | 18.9 µM (inactive)
NC(=O)C(=O)c1ncn(Cc2ccccc2)c1N | – | > 100 µM (inactive) | > 100 µM (inactive) | – | – | > 100 µM (inactive) | > 100 µM (inactive)
CC(=O)On1c(-c2ccccc2-c2nc3ccccc3n2OC(C)=O)nc2ccccc21 | 30.3 µM (inactive) | 37.8 µM (inactive) | 21 µM (inactive) | – | – | 49.7 µM (inactive) | 17.7 µM (inactive)
Clc1ccc(C(Cc2ccccc2)c2c(Cl)nc(N3CCNCC3)nc2Cl)cc1 (stereo not given) | 21.3 µM (inactive) | 14.8 µM (inactive) | – | – | – | 14.5 µM (inactive) | 12.8 µM (inactive)
CO/C=C(/C(=O)OC)[C@@H]1C[C@@H]1c1ccc2ccccc2c1 | 21.8 µM (inactive) | 31.8 µM (inactive) | 20.4 µM (inactive) | – | – | 38.9 µM (inactive) | 20.9 µM (inactive)
COc1ccc(C(=O)Oc2c(C#N)sc3c2c(=O)n(-c2ccccc2)c(=S)n3-c2ccccc2)cc1 | – | 25.9 µM (inactive) | > 10 µM (inactive) | – | – | 33 µM (inactive) | 33.6 µM (inactive)
COC(=O)Nc1nc2ccc(S(=O)(=O)SC)cc2[nH]1 | 10.1 µM (inactive) | 20.5 µM (inactive) | – | – | – | 6.05 µM (inactive) | 9.55 µM (inactive)
CCCCCC(=O)OCC1(CO)C/C(=C\CC(C(C)C)C(C)C)C(=O)O1 (stereo not given) | > 100 µM (inactive) | 24.5 µM (inactive) | > 100 µM (inactive) | – | – | > 100 µM (inactive) | > 100 µM (inactive)
Cc1ccc(SCC(CF)OC(C)n2cnc3c(O)nc(N)nc32)cc1 (stereo not given) | 19.8 µM (inactive) | > 100 µM (inactive) | > 100 µM (inactive) | – | – | > 100 µM (inactive) | 49.1 µM (inactive)
CC1(C)OCC(C2OC3OC(C)(C)OC3C2c2ccccc2)O1 (stereo not given) | – | 20.7 µM (inactive) | 37 µM (inactive) | – | – | 45.6 µM (inactive) | 38.2 µM (inactive)
C#CCCCC(=C)C[C@H](OCc1ccccc1)[C@H]1OC(=O)[C@@H]1C | > 100 µM (inactive) | – | 22.9 µM (inactive) | – | – | – | –
CCCCOc1ccc(CC(NC(=O)OC(C)(C)C)C(=O)NC(C)C(=O)NC(Cc2ccccc2)C(=O)NCC(N)=O)cc1 (stereo not given) (Boc-Y(nBu)AFG-NH2; configuration not given here) | > 100 µM (inactive) | > 100 µM (inactive) | 61.9 µM (inactive) | – | – | > 100 µM (inactive) | > 100 µM (inactive)
COC(=O)C1(C)OC(C)=NC1(C(=O)OC)C(=O)OC (stereo not given) | > 31.6 µM (inactive) | > 100 µM (inactive) | > 100 µM (inactive) | – | – | > 100 µM (inactive) | > 100 µM (inactive)
O=C1C(S(=O)(=O)c2ccccc2)=C(CS(=O)(=O)c2ccccc2)[C@@H](OCc2ccccc2)[C@@H]1OCc1ccccc1 | 13.5 µM (inactive) | 23 µM (inactive) | 23 µM (inactive) | – | – | 35.2 µM (inactive) | 32.7 µM (inactive)
CC1C(c2ccc(N(C)C)cc2)c2cc3c(cc2OC1N1CCCC1)OCO3 (stereo not given) | 38.2 µM (inactive) | 28.8 µM (inactive) | 14.6 µM (inactive) | – | – | 66.2 µM (inactive) | 54.3 µM (inactive)
C1=CN2C[n+]3ccc4ccccc4c3N=C2c2ccccc21 | 7.98 µM (inactive) | 3.92 µM (inactive) | 2.26 µM (inactive) | – | – | 6.62 µM (inactive) | 0.671 µM (active)
CC1(C)CCCOc2cccc(c2)OCCCC(C)(C)C1=O | 29.8 µM (inactive) | 39.7 µM (inactive) | 45.2 µM (inactive) | – | – | 85.3 µM (inactive) | 31.8 µM (inactive)
COC(=O)CCc1ccc2c(c1)[C@H](C(=O)OC)[C@@H](c1ccc(O)cc1)O2 | 74.5 µM (inactive) | > 100 µM (inactive) | > 100 µM (inactive) | – | – | > 100 µM (inactive) | 78.2 µM (inactive)
CN1CCC[N+](C)=C1c1ccccc1 | > 100 µM (inactive) | > 100 µM (inactive) | > 100 µM (inactive) | – | – | > 100 µM (inactive) | > 100 µM (inactive)
